{
  "source": "patent US20030134774A1",
  "about": "“Methods for inhibiting cardiac disorders” (priority 2001, published 2003)",
  "key": {"cardiomyocytes [1]": {"tested_on": "cardiomyocytes", "assay": "Tolerance of cardiomyocytes to prolonged incubation with inhibitor", "settings": "prolonged (24 hr) incubations"}, "cardiomyocytes [2]": {"tested_on": "cardiomyocytes", "assay": "TUNEL assay of apoptosis in cardiomyocyte cultures", "format": "cell-based, rat", "settings": "500 μM, 24 hr", "experimental": "rPMT increases H2O2-induced apoptosis in cardiomyocyte cultures. Cells were treated without or with rPMT (400 ng/ml) for 24 hr followed by H202 (500 μM) for 24 hr. The percentage of cells undergoing apoptosis was measured by TUNEL assay as described in Methods below. Data are from a single experiment and are representative of results obtained on 3 separate culture preparations.\nTUNEL staining was performed for detection of apoptotic cells according to manufacturer's instructions (Boehringer). Approximately 500 cardiomyocytes were imaged by fluorescence microscopy and the number of cells that scored TUNEL-positive is presented as a percentage of total."}},
  "data": [
    {"smiles": "CC(=O)c1c(O)c(C)c(O)c(Cc2c(O)c3c(c(C(=O)/C=C/c4ccccc4)c2O)OC(C)(C)C=C3)c1O", "note": "[rottlerin]", "values": [
      {"measurement": "tolerance of cardiomyocytes to the inhibitor", "setting": "cardiomyocytes [1]", "value": "do not tolerate"}
    ]},
    {"smiles": "OO", "note": "[H202, reference compound]", "values": [
      {"measurement": "apoptosis (TUNEL)", "setting": "cardiomyocytes [2]", "value": "induces apoptosis"}
    ]}
  ]
}
